target: T1, human TLR8 (wild type sequence) (Homo sapiens, UniProt Q9NR97); assay: TLR8 cellular NFκB-luc reporter assay, wild type TLR8; assay type: cell-based; design: unit not given here; conditions: lowest effective concentration
T1 construct: expressed in transfected cells; host or cells: HEK293
T1 sequence (Q9NR97 27-1041): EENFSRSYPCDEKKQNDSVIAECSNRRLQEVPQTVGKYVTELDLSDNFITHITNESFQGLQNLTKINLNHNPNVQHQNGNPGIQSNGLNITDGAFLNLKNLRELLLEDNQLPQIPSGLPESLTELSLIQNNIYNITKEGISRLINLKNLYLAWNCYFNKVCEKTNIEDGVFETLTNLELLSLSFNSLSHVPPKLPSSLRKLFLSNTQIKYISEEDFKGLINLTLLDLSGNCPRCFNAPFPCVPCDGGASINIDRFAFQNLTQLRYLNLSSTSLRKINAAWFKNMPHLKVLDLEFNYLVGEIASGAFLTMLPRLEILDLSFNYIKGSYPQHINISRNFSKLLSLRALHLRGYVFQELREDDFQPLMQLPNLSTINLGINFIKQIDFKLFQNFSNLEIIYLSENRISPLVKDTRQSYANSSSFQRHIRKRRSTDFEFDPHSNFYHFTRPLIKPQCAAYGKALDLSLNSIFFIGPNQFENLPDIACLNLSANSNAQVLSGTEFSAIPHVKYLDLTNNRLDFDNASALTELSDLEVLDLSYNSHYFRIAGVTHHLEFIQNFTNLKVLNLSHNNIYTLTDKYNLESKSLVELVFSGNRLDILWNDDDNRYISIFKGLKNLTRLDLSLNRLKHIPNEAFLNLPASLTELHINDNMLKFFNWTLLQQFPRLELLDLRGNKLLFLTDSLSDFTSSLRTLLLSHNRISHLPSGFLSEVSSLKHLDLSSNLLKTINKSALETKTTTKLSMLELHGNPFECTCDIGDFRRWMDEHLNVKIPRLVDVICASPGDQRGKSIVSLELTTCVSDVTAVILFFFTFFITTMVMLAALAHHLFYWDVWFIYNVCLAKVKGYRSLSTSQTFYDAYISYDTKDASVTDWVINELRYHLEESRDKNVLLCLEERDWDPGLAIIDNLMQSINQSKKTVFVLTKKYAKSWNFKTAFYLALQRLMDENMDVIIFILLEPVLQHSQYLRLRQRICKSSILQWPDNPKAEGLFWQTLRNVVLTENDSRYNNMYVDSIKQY
Summary of the method: (§1)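 HEK293 cells transiently co-transfected (48 h, 37 °C) with CMV-TLR7 or TLR8 plasmid (wild type or second-LRR deletion mutant) plus NFκB-luc reporter. Cells exposed to compound for 6 h at 37 °C, 5% CO2; luciferase read-out. LEC from quadruplicate dose-response curves: concentration giving effect at least two fold above assay standard deviation.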

Structure (SMILES)	TLR8-wt_LEC
CCC[C@@H](CO)Nc1nc(N)ncc1OCCOC [Compound 196]	0.687
CCCC[C@@H](CO)Nc1nc(N)ncc1OCCOC [Compound 197]	0.767
CCCC[C@@H](CO)Nc1nc(N)ncc1OCc1ccc2ccccc2n1 [Compound 198]	0.089
CCC[C@@H](CO)Nc1nc(N)ncc1OCCCc1ccc(OC)cc1 [Compound 200]	0.200
CCCC[C@@H](CO)Nc1nc(N)ncc1OCCCc1ccc(OC)cc1 [Compound 201]	0.758
CCC[C@@H](CO)Nc1nc(N)ncc1OCc1cccc(C)n1 [Compound 202]	0.049
CCCC[C@@H](CO)Nc1nc(N)ncc1OCc1cccc(C)n1 [Compound 203]	0.054
CCC[C@@H](CO)Nc1nc(N)ncc1OCCCc1ccc2c(c1)OCO2 [Compound 204]	0.493
CCC[C@@H](CCO)Nc1nc(N)ncc1OCc1cn2ccccc2n1 [Compound 205]	0.047
CCCCNc1nc(N)ncc1OCC1(C)COC1 [Compound 206]	>23.81
CCCC[C@@H](CCO)Nc1nc(N)ncc1OCc1cn2ccccc2n1 [Compound 207]	0.063
CCCCNc1nc(N)ncc1OCc1cn2ccccc2n1 [Compound 209]	0.076
CCCCNc1nc(N)ncc1OCc1ccc(C#N)cc1 [Compound 210]	0.237
CCCCNc1nc(N)ncc1OCc1cn2ccncc2n1 [Compound 211]	0.097
CCC[C@H](C)Nc1nc(N)ncc1OCc1nccc2ccccc12 [Compound 212]	0.005

test system: human TLR7 mutant sequence comprising a deletion in the second leucine-rich repeat; assay: TLR7 cellular NFκB-luc reporter assay, mutant TLR7 with deletion in the second leucine-rich repeat; assay type: cell-based; design: unit not given here; conditions: lowest effective concentration
Method: The ability of compounds to activate human TLR7 and/or TLR8 was assessed in a cellular reporter assay using HEK293 cells transiently transfected with a TLR7 or TLR8 expression vector and NFκB-luc reporter construct. In one instance the TLR expression construct expresses the respective wild type sequence or a mutant sequence comprising a deletion in the second leucine-rich repeat of the TLR.
Briefly, HEK293 cells were grown in culture medium (DMEM supplemented with 10% FCS and 2 mM Glutamine). For transfection of cells in 10 cm dishes, cells were detached with Trypsin-EDTA, transfected with a mix of CMV-TLR7 or TLR8 plasmid (750 ng), NFκB-luc plasmid (375 ng) and a transfection reagent and incubated for 48 hours at 37° C. in a humidified 5% CO2 atmosphere. […] Thirty microliters of cells were then dispensed into each well in 384-well plates, where 10 μL of compound in 4% DMSO was already present. Following 6 hours incubation at 37° C., 5% CO2, the luciferase activity was determined by adding 15 μl of Steady Lite Plus substrate (Perkin Elmer) to each well and readout performed on a ViewLux ultraHTS microplate imager (Perkin Elmer). Dose response curves were generated from measurements performed in quadruplicates.

Structure (SMILES)	TLR7-dIRR2_LEC
CCC[C@@H](CO)Nc1nc(N)ncc1OCCOC [Compound 196]	0.469
CCCC[C@@H](CO)Nc1nc(N)ncc1OCCOC [Compound 197]	0.624
CCCC[C@@H](CO)Nc1nc(N)ncc1OCc1ccc2ccccc2n1 [Compound 198]	0.511
CCC[C@@H](CO)Nc1nc(N)ncc1OCCCc1ccc(OC)cc1 [Compound 200]	0.181
CCCC[C@@H](CO)Nc1nc(N)ncc1OCCCc1ccc(OC)cc1 [Compound 201]	0.647
CCC[C@@H](CO)Nc1nc(N)ncc1OCc1cccc(C)n1 [Compound 202]	0.089
CCCC[C@@H](CO)Nc1nc(N)ncc1OCc1cccc(C)n1 [Compound 203]	0.160
CCC[C@@H](CO)Nc1nc(N)ncc1OCCCc1ccc2c(c1)OCO2 [Compound 204]	0.791
CCC[C@@H](CCO)Nc1nc(N)ncc1OCc1cn2ccccc2n1 [Compound 205]	1.110
CCCCNc1nc(N)ncc1OCC1(C)COC1 [Compound 206]	9.450
CCCC[C@@H](CCO)Nc1nc(N)ncc1OCc1cn2ccccc2n1 [Compound 207]	1.450
CCCCNc1nc(N)ncc1OCc1cn2ccccc2n1 [Compound 209]	0.667
CCCCNc1nc(N)ncc1OCc1ccc(C#N)cc1 [Compound 210]	0.896
CCCCNc1nc(N)ncc1OCc1cn2ccncc2n1 [Compound 211]	1.040
CCC[C@H](C)Nc1nc(N)ncc1OCc1nccc2ccccc12 [Compound 212]	0.148

target: T2, human TLR7 (wild type sequence) (Homo sapiens, UniProt Q9NYK1); assay: TLR7 cellular NFκB-luc reporter assay, wild type TLR7; assay type: cell-based; design: unit not given here; conditions: lowest effective concentration, wild type TLR7
T2 construct: expressed in transfected cells; host or cells: HEK293
T2 sequence (Q9NYK1 27-1049): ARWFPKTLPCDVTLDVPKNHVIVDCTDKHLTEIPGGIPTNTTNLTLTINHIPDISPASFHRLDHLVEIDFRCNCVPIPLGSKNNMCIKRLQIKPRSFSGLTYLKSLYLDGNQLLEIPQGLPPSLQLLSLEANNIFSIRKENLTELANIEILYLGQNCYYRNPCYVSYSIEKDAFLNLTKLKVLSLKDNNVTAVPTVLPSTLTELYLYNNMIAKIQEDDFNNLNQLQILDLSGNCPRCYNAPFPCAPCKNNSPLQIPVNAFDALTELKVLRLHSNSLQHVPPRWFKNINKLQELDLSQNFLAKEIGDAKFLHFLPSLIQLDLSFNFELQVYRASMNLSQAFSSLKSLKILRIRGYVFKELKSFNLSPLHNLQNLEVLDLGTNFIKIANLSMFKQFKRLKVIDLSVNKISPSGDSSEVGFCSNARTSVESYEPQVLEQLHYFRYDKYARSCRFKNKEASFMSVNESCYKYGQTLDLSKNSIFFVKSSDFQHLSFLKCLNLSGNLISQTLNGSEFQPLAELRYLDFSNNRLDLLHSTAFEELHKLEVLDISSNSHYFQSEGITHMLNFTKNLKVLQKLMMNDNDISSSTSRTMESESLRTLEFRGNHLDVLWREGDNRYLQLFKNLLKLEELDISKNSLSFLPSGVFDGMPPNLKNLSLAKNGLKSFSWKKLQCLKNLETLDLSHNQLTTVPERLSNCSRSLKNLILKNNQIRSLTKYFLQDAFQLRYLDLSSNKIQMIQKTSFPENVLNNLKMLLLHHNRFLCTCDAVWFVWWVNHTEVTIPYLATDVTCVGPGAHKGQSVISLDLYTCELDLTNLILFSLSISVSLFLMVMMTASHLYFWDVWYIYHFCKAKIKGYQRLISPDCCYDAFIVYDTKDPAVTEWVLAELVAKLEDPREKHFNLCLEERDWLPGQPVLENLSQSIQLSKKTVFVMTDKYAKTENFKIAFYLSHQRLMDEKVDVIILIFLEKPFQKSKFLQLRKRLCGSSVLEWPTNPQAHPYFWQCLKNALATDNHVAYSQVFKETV
Summary of the method: as §1

Structure (SMILES)	TLR7-wt_LEC
CCC[C@@H](CO)Nc1nc(N)ncc1OCCOC [Compound 196]	1.900
CCCC[C@@H](CO)Nc1nc(N)ncc1OCCOC [Compound 197]	2.650
CCCC[C@@H](CO)Nc1nc(N)ncc1OCc1ccc2ccccc2n1 [Compound 198]	0.076
CCC[C@@H](CO)Nc1nc(N)ncc1OCCCc1ccc(OC)cc1 [Compound 200]	0.253
CCCC[C@@H](CO)Nc1nc(N)ncc1OCCCc1ccc(OC)cc1 [Compound 201]	0.566
CCC[C@@H](CO)Nc1nc(N)ncc1OCc1cccc(C)n1 [Compound 202]	0.164
CCCC[C@@H](CO)Nc1nc(N)ncc1OCc1cccc(C)n1 [Compound 203]	0.124
CCC[C@@H](CO)Nc1nc(N)ncc1OCCCc1ccc2c(c1)OCO2 [Compound 204]	0.791
CCC[C@@H](CCO)Nc1nc(N)ncc1OCc1cn2ccccc2n1 [Compound 205]	0.369
CCCCNc1nc(N)ncc1OCC1(C)COC1 [Compound 206]	>25
CCCC[C@@H](CCO)Nc1nc(N)ncc1OCc1cn2ccccc2n1 [Compound 207]	0.177
CCCCNc1nc(N)ncc1OCc1cn2ccccc2n1 [Compound 209]	0.074
CCCCNc1nc(N)ncc1OCc1ccc(C#N)cc1 [Compound 210]	0.686
CCCCNc1nc(N)ncc1OCc1cn2ccncc2n1 [Compound 211]	0.208
CCC[C@H](C)Nc1nc(N)ncc1OCc1nccc2ccccc12 [Compound 212]	0.007
